Data taken from PubChem BioAssay (NCI).
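48-hour exposure; five concentrations; linearly interpolated endpoints. GI50 = concentration required for 50% inhibition of growth. The concentration for full growth arrest is given as TGI.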

How the values were obtained:
Assay in all cases: DTP human tumour cell line panel, 48 h
[1] = tested on: SK-MEL-5 melanoma
[2] = tested on: PC-3 prostate
[3] = tested on: RXF 393 renal
[4] = tested on: NCI-H226 lung
[5] = tested on: HCT-116 colon
[6] = tested on: SNB-75 CNS
[7] = tested on: SNB-19 CNS
[8] = tested on: LOX IMVI melanoma
[9] = tested on: IGROV1 ovarian
[10] = tested on: UACC-62 melanoma
[11] = tested on: COLO 205 colon
[12] = tested on: 786-0 renal
[13] = tested on: SR leukemia
[14] = tested on: SF-268 CNS

S=c1[nH]nc(NNc2ccccc2)n1Nc1ccccc1
TGI [1]: > 100 µM | TGI [2]: > 100 µM | TGI [3]: > 100 µM | TGI [4]: > 96.6 µM | TGI [5]: > 100 µM | TGI [6]: > 100 µM | TGI [7]: > 100 µM | TGI [8]: 32.5 µM | TGI [9]: > 100 µM | TGI [10]: > 100 µM | TGI [11]: > 37.6 µM | TGI [12]: > 100 µM | TGI [13]: > 91.1 µM | TGI [14]: > 100 µM

O=C(CSC1=NNC2(C(=O)N1)c1ccccc1-c1ccccc12)NC(=S)Nc1ccccc1
TGI [1]: > 10 µM | TGI [2]: > 10 µM | TGI [3]: > 10 µM | TGI [4]: > 10 µM | TGI [5]: > 10 µM | TGI [6]: > 10 µM | TGI [7]: > 10 µM | TGI [8]: > 10 µM | TGI [9]: > 10 µM | TGI [10]: > 10 µM | TGI [11]: > 10 µM | TGI [12]: > 10 µM | TGI [13]: > 10 µM | TGI [14]: > 10 µM

CC(=O)ON(C(C)=O)c1ccc(-c2nc3ccccc3s2)cc1C
TGI [1]: > 100 µM | TGI [2]: > 100 µM | TGI [4]: > 100 µM | TGI [5]: > 100 µM | TGI [6]: > 100 µM | TGI [7]: > 100 µM | TGI [8]: > 100 µM | TGI [9]: > 100 µM | TGI [10]: > 100 µM | TGI [11]: > 100 µM | TGI [12]: > 100 µM | TGI [13]: > 100 µM | TGI [14]: > 100 µM

Cc1c(C)c(S(=O)(=O)N(CCCCCON)OCCCN)c(C)c2c1OC(C)(C)CC2
TGI [1]: 29.5 µM | TGI [2]: 26.4 µM | TGI [3]: 25.1 µM | TGI [4]: 36.7 µM | TGI [5]: > 100 µM | TGI [6]: 27.3 µM | TGI [7]: 28.9 µM | TGI [8]: 22.5 µM | TGI [9]: 23.4 µM | TGI [10]: 27.4 µM | TGI [11]: 10.3 µM | TGI [12]: > 100 µM | TGI [13]: > 21.7 µM | TGI [14]: 30.5 µM

COc1ccc(NC2CC(C)N(C(=O)c3ccccc3)O2)cc1 (centres undefined)
TGI [1]: > 10 µM | TGI [2]: > 10 µM | TGI [3]: > 10 µM | TGI [5]: > 10 µM | TGI [6]: > 10 µM | TGI [7]: > 10 µM | TGI [8]: > 10 µM | TGI [9]: > 10 µM | TGI [11]: > 10 µM | TGI [12]: > 10 µM | TGI [13]: > 10 µM | TGI [14]: > 10 µM

COC(=O)c1c(-c2ccccc2)c2sc3ccccc3n2c1N
TGI [1]: > 100 µM | TGI [2]: > 100 µM | TGI [3]: 55.1 µM | TGI [4]: > 100 µM | TGI [5]: > 100 µM | TGI [6]: > 100 µM | TGI [7]: > 100 µM | TGI [8]: 43.2 µM | TGI [9]: > 100 µM | TGI [10]: > 100 µM | TGI [11]: 97 µM | TGI [12]: > 100 µM | TGI [13]: > 100 µM | TGI [14]: > 100 µM

Nc1nc(N)c2nc(CNc3ccc(C(=O)NC(CCCCNC(=O)c4ccccc4C(=O)O)C(=O)O)cc3)cnc2n1 (centres undefined)
GI50 [1]: 0.0913 µM | TGI [1]: > 100 µM | GI50 [2]: 0.000432 µM | TGI [2]: > 100 µM | TGI [3]: > 100 µM | TGI [4]: > 100 µM | GI50 [5]: 0.000622 µM | TGI [5]: > 100 µM | TGI [6]: > 100 µM | TGI [7]: > 100 µM | GI50 [8]: 0.000869 µM | TGI [8]: > 100 µM | TGI [9]: > 100 µM | TGI [10]: > 100 µM | GI50 [11]: 0.537 µM | TGI [11]: > 100 µM | TGI [12]: > 100 µM | TGI [13]: > 100 µM | GI50 [14]: 0.00841 µM | TGI [14]: > 100 µM

CC(C)C(NCc1c(O)ccc2c(-c3ccccc3)cc(=O)oc12)C(=O)O (centres undefined)
TGI [1]: > 100 µM | TGI [2]: > 100 µM | TGI [3]: > 100 µM | TGI [4]: > 100 µM | TGI [5]: > 100 µM | TGI [6]: > 100 µM | TGI [7]: > 100 µM | TGI [8]: > 100 µM | TGI [9]: > 100 µM | TGI [10]: > 100 µM | TGI [11]: > 100 µM | TGI [12]: > 100 µM | TGI [13]: > 100 µM | TGI [14]: > 100 µM

N#CC(C#N)=Cn1c(=S)[nH]c2ccccc21
TGI [1]: > 100 µM | TGI [2]: > 100 µM | TGI [3]: > 100 µM | TGI [4]: > 100 µM | TGI [5]: > 100 µM | TGI [6]: > 100 µM | TGI [7]: > 100 µM | TGI [8]: > 100 µM | TGI [9]: > 100 µM | TGI [10]: > 100 µM | TGI [11]: > 100 µM | TGI [12]: > 100 µM | TGI [13]: > 100 µM | TGI [14]: > 100 µM

O=C(NNC(=O)c1ccccc1O)c1ccc(O)cc1
TGI [1]: > 100 µM | TGI [2]: > 100 µM | TGI [3]: > 100 µM | TGI [4]: > 100 µM | TGI [5]: > 100 µM | TGI [6]: > 100 µM | TGI [7]: > 100 µM | TGI [8]: > 100 µM | TGI [9]: > 100 µM | TGI [10]: > 100 µM | TGI [11]: > 100 µM | TGI [12]: > 100 µM | TGI [13]: > 100 µM | TGI [14]: > 100 µM

CC(=O)c1sc(=N)n(-c2c(C)cccc2C)c1C
TGI [1]: > 100 µM | TGI [2]: > 100 µM | TGI [3]: > 100 µM | TGI [4]: > 100 µM | TGI [6]: > 100 µM | TGI [7]: > 100 µM | TGI [8]: > 100 µM | TGI [9]: > 100 µM | TGI [10]: > 100 µM | TGI [11]: > 100 µM | TGI [12]: > 100 µM | TGI [13]: > 100 µM | TGI [14]: > 100 µM

Cc1cc(-c2nc3cccc(F)c3s2)ccc1N
TGI [1]: > 100 µM | TGI [2]: > 100 µM | TGI [3]: > 100 µM | TGI [4]: > 100 µM | TGI [5]: > 100 µM | TGI [6]: 99.4 µM | TGI [7]: > 100 µM | TGI [8]: > 100 µM | TGI [9]: > 100 µM | TGI [10]: > 100 µM | TGI [11]: > 100 µM | TGI [12]: > 100 µM | TGI [13]: > 74.8 µM | TGI [14]: > 86 µM

CN(C)Cc1cc(N=Nc2ccc(Cl)cc2)ccc1OC(=O)c1ccccc1
TGI [1]: 28.8 µM | TGI [2]: 29 µM | TGI [3]: 30.1 µM | TGI [4]: 54.3 µM | TGI [5]: 29.9 µM | TGI [6]: 38.7 µM | TGI [7]: 29.8 µM | TGI [8]: 27.6 µM | TGI [9]: 25.9 µM | TGI [11]: 40.8 µM | TGI [12]: 27.8 µM | TGI [13]: 31.8 µM | TGI [14]: 59.9 µM

CC1=NN(C(=O)CC(=O)Nc2cccc(Cl)c2)C(=O)C1N=Nc1ccc(C(=O)O)cc1 (centres undefined)
TGI [1]: > 100 µM | TGI [2]: > 100 µM | TGI [3]: > 100 µM | TGI [5]: > 100 µM | TGI [6]: > 100 µM | TGI [7]: > 100 µM | TGI [8]: > 100 µM | TGI [9]: > 100 µM | TGI [10]: > 100 µM | TGI [11]: > 100 µM | TGI [12]: > 100 µM | TGI [13]: > 100 µM | TGI [14]: > 100 µM

CN(C)CC1CN=C(NC(=O)Nc2ccccc2)O1 (centres undefined)
TGI [1]: > 100 µM | TGI [2]: > 100 µM | TGI [3]: > 100 µM | TGI [4]: > 100 µM | TGI [5]: > 100 µM | TGI [6]: > 100 µM | TGI [7]: > 100 µM | TGI [8]: > 100 µM | TGI [9]: > 100 µM | TGI [10]: > 100 µM | TGI [11]: > 100 µM | TGI [12]: > 100 µM | TGI [13]: > 100 µM | TGI [14]: > 100 µM

C=C(C)C12CC3CC/C(=N/O)C(C1)C3(N1CCOCC1)C/C2=N/O (centres undefined)
TGI [1]: > 100 µM | TGI [2]: > 100 µM | TGI [3]: > 100 µM | TGI [4]: > 100 µM | TGI [5]: > 100 µM | TGI [6]: > 100 µM | TGI [7]: > 100 µM | TGI [8]: > 100 µM | TGI [9]: > 100 µM | TGI [10]: > 100 µM | TGI [11]: > 100 µM | TGI [12]: > 100 µM | TGI [13]: > 100 µM | TGI [14]: > 100 µM
